Laboratory results taken from article PMC10652874, “Investigation into the mechanism of action of the antimicrobial peptide epilancin 15X” (Frontiers in Microbiology, 2023).

Test system: S. carnosus TM300
Experiment: RNAseq differential gene expression
Type: cell-based, Staphylococcus carnosus
Experimental: For the RNAseq experiments, epilancin was added at sub-lethal concentration (0.5x MIC) to S. carnosus TM300 once the cultures reached an OD600 of 0.6. RNA was extracted 40 min after the treatment, using a FastRNA Pro Blue kit (MP Biomedicals). Both treated and parallel untreated samples were collected at the same time. Sequencing was performed at the Carver Biotechnology Center (UIUC). For RNAseq analysis, gene counts were read in to R (v3.1.1; [Team, 2014]), and 14/2441 genes were removed because they had fewer than 32 total counts across the six samples. edgeR’s (v3.6.7) TMM normalization ([Robinson and Oshlack, 2010]) plus negative binomial generalized log-linear model ([McCarthy et al., 2012]) was used to test for differential expression between treated and untreated groups, while accounting for pairing of U and T replicates from three different cultures. p-values were adjusted using the false discovery rate method ([Benjamini and Hochberg, 1995]).

Substance: Epilancin 15X
- fold_change (gene ileS, isoleucyl-tRNA synthetase): 0.47
- fold_change (gene kbl, 2-amino-3-ketobutyrate coenzyme A ligase): 0.46
- fold_change (gene mnhA, monovalent cation/H+ antiporter subunit A): 0.48
- fold_change (gene murC, UDP-N-acetylmuramate--L-alanine ligase): 0.4
- fold_change (gene ndk, nucleoside diphosphate kinase): 0.44
- fold_change (gene nirC, NirC protein): 0.43
- fold_change (gene nos, nitric oxide synthase oxygenase): 0.43
- fold_change (gene opuAC, putative glycine betaine ABC transporter substrate-binding protein): 0.43
- fold_change (gene pmi, mannose-6-phosphate isomerase): 0.42
- fold_change (gene potA, putative spermidine/putrescine import ATP-binding protein PotA): 0.41
- fold_change (gene prmC (SCA_1620), hypothetical protein): 0.48
- fold_change (gene ptsG (glcA), glucose-specific phosphotransferase system enzyme II, factor IIA): 0.42
- fold_change (gene purA, adenylosuccinate synthetase): 0.45
- fold_change (gene purB, adenylosuccinate lyase): 0.41
- fold_change (gene rex (SCA_1553), redox-sensing transcriptional repressor Rex): 0.42
- fold_change (gene rimM, 16S rRNA-processing protein RimM): 0.44
- fold_change (gene rplE, 50S ribosomal protein L5): 0.47
- fold_change (gene rplF, 50S ribosomal protein L6): 0.48
- fold_change (gene rplJ, 50S ribosomal protein L10): 0.48
- fold_change (gene rplL, 50S ribosomal protein L7/L12): 0.48
- fold_change (gene rplR, 50S ribosomal protein L18): 0.47
- fold_change (gene rplX, 50S ribosomal protein L24): 0.48
- fold_change (gene rpmD, 50S ribosomal protein L30): 0.48
- fold_change (gene rpmG, 50S ribosomal protein L33): 0.42
- fold_change (gene rpsE, 30S ribosomal protein S5): 0.48
- fold_change (gene rpsF, 30S ribosomal protein S6): 0.42
- fold_change (gene rpsH, 30S ribosomal protein S8): 0.48
- fold_change (gene rpsR, 30S ribosomal protein S18): 0.47
- fold_change (gene rpsT, 30S ribosomal protein S20): 0.44
- fold_change (gene sdhB, succinate dehydrogenase iron-sulfur subunit): 0.41
- fold_change (gene trmD, tRNA (guanine-N(1)-)-methyltransferase): 0.44
- fold_change (gene trpD, anthranilate phosphoribosyltransferase): 0.4
- fold_change (gene trpS, tryptophanyl-tRNA synthetase): 0.47
- fold_change (gene tyrA, prephenate dehydrogenase): 0.41
- fold_change dps (general stress protein 20U): 6.95
- fold_change Sca_1447 (glycosyltransferase): 3.57
- fold_change Sca_0051 (glyoxalase/bleomycin resistance protein/dioxygenase superfamily protein): 6.15
- fold_change Sca_0808 (glyoxalase/bleomycin resistance protein/dioxygenase superfamily protein (fragment 2)): 2.14
- fold_change gloA (glyoxylase family protein): 3.75
- fold_change grpE (heat shock protein GrpE): 2.94
- fold_change vraS (histidine kinase sensor): 7.95
- fold_change Sca_0031 (hypothetical protein): 3.09
- fold_change Sca_0046 (hypothetical protein): 2.17
- fold_change Sca_0052 (hypothetical protein): 5.71
- fold_change Sca_0054 (hypothetical protein): 2.52
- fold_change Sca_0067 (hypothetical protein): 4.42
- fold_change Sca_0071 (hypothetical protein): 7.07
- fold_change Sca_0072 (hypothetical protein): 7.15
- fold_change Sca_0096 (hypothetical protein): 3.48
- fold_change Sca_0097 (hypothetical protein): 2.35
- fold_change Sca_0098 (hypothetical protein): 2.28
- fold_change Sca_0100 (hypothetical protein): 2.47
- fold_change Sca_0114 (hypothetical protein): 3.35
- fold_change Sca_0117 (hypothetical protein): 2.03
- fold_change Sca_0128 (hypothetical protein): 0.49
- fold_change Sca_0133 (hypothetical protein): 2.43
- fold_change Sca_0179 (hypothetical protein): 5.25
- fold_change Sca_0238 (hypothetical protein): 5.63
- fold_change Sca_0248 (hypothetical protein): 3.2
- fold_change Sca_0264 (hypothetical protein): 2.54
- fold_change Sca_0265 (hypothetical protein): 3.04
- fold_change Sca_0279 (hypothetical protein): 2.02
- fold_change Sca_0299 (hypothetical protein): 4.24
- fold_change Sca_0324 (hypothetical protein): 2.17
- fold_change Sca_0328 (hypothetical protein): 6.61
- fold_change Sca_0329 (hypothetical protein): 5.2
- fold_change Sca_0356 (hypothetical protein): 4.74
- fold_change Sca_0422 (hypothetical protein): 2.12
- fold_change Sca_0454 (hypothetical protein): 3.4
- fold_change Sca_0459 (hypothetical protein): 3.3
- fold_change Sca_0468 (hypothetical protein): 2.78
- fold_change Sca_0471 (hypothetical protein): 4
- fold_change Sca_0472 (hypothetical protein): 3.68
- fold_change Sca_0473 (hypothetical protein): 4.68
- fold_change Sca_0474 (hypothetical protein): 4.61
- fold_change Sca_0477 (hypothetical protein): 4.52
- fold_change Sca_0478 (hypothetical protein): 3.97
- fold_change Sca_0481 (hypothetical protein): 4.58
- fold_change Sca_0482 (hypothetical protein): 3.77
- fold_change Sca_0483 (hypothetical protein): 3.93
- fold_change Sca_0484 (hypothetical protein): 3.96
- fold_change Sca_0485 (hypothetical protein): 3.21
- fold_change Sca_0487 (hypothetical protein): 4.14
- fold_change Sca_0488 (hypothetical protein): 2.02
- fold_change Sca_0489 (hypothetical protein): 2.6
- fold_change Sca_0490 (hypothetical protein): 2.76
- fold_change Sca_0491 (hypothetical protein): 2.13
- fold_change Sca_0525 (hypothetical protein): 2.45
- fold_change Sca_0529 (hypothetical protein): 2.16
- fold_change Sca_0643 (hypothetical protein): 3.47
- fold_change Sca_0647 (hypothetical protein): 2.16
- fold_change Sca_0648 (hypothetical protein): 2.05
- fold_change Sca_0666 (hypothetical protein): 5.78
- fold_change Sca_0700 (hypothetical protein): 2.96
- fold_change Sca_0703 (hypothetical protein): 5.58
- fold_change Sca_0752 (hypothetical protein): 2.97
- fold_change Sca_0778 (hypothetical protein): 3.33
- fold_change Sca_0834 (hypothetical protein): 3.67
- fold_change Sca_0844 (hypothetical protein): 5.22
- fold_change Sca_0862 (hypothetical protein): 2.79
- fold_change Sca_0868 (hypothetical protein): 2.53
- fold_change Sca_0877 (hypothetical protein): 2.02
- fold_change Sca_0934 (hypothetical protein): 3.62
- fold_change Sca_0935 (hypothetical protein): 2.43
- fold_change Sca_0959 (hypothetical protein): 2.05
- fold_change Sca_0965 (hypothetical protein): 2.37
- fold_change Sca_0993 (hypothetical protein): 2.38
- fold_change Sca_1021 (hypothetical protein): 2.3
- fold_change Sca_1081 (hypothetical protein): 2.09
- fold_change Sca_1154 (hypothetical protein): 2.08
- fold_change Sca_1155 (hypothetical protein): 2.03
- fold_change Sca_1209 (hypothetical protein): 3.24
- fold_change Sca_1210 (hypothetical protein): 2.68
- fold_change Sca_1212 (hypothetical protein): 2.1
- fold_change Sca_1236 (hypothetical protein): 5.11
- fold_change Sca_1237 (hypothetical protein): 5.24
- fold_change Sca_1261 (hypothetical protein): 4.39
- fold_change Sca_1262 (hypothetical protein): 4.13
- fold_change Sca_1263 (hypothetical protein): 3.92
- fold_change Sca_1265 (hypothetical protein): 6.01
- fold_change Sca_1328 (hypothetical protein): 2.71
- fold_change Sca_1396 (hypothetical protein): 2.4
- fold_change Sca_1420 (hypothetical protein): 2.04
- fold_change Sca_1461 (hypothetical protein): 6.62
- fold_change Sca_1500 (hypothetical protein): 2.03
